Values quoted from earlier work, collected in patent US20060014801A1, “Prevention and treatment of cognitive impairment using (R)-(-)-5-methyl-1-nicotynoyl-2-pyrazoline (MNP) and analogs” (The Johns Hopkins University, priority 2002, published 2006).

Tested on: aged rats
Settings: cited from earlier work

In the case of `CO/N=C(\C(=O)N[C@@H]1C(=O)N2C(C(=O)O)=C(CSc3nc(=O)c(=O)[nH]n3C)CS[C@H]12)c1csc(N)n1` [ceftriaxone], the Cognitive function is listed as “improvements of cognitive function”.
